Experimental data taken from paper PMC4284078 (Virology, 2014).

Assay: FTIR spectroscopy secondary structure
Assay type: physicochemical
Settings: 2 mM peptide in deuterated 10 mM phosphate buffer pD 5.6, 25°C, means of four separate determinations, SE ± 5% or better

Val Ser Phe Arg Val Gly Leu His Glu Tyr Pro Val -CON H2 [HCV1]
% Conformation Disordered: 23.74% | % Conformation Turn: 31.05% | % Conformation α-Helix: 2.10% | % Conformation β-Sheet: 43.11%

Arg Cys^S- Arg Phe Arg Val D-Pro Cha His Arg Tyr Arg Cys^s Arg -CON H2 (disulfide) [HCV5]
% Conformation Disordered: 12.83% | % Conformation Turn: 25.72% | % Conformation α-Helix: 10.55% | % Conformation β-Sheet: 50.90%

Cys^S- Ser Phe Arg Val Gly Leu His Glu Tyr Pro Cys^s -CON H2 (disulfide) [HCV3]
% Conformation Disordered: 12.04% | % Conformation Turn: 21.96% | % Conformation α-Helix: 11.60% | % Conformation β-Sheet: 54.34%

Pal-Ahx-Ahx- Arg Cys^S- Arg Phe Arg Val D-Pro Cha His Arg Tyr Arg Cys^S- Arg -CON H2 (disulfide) [HCV6]
% Conformation Disordered: 14.40% | % Conformation Turn: 20.39% | % Conformation α-Helix: 12.34% | % Conformation β-Sheet: 52.87%
